The values below come from ChEMBL document CHEMBL1159234, “Antitumor agents, 157. Absolute structures of cumingianosides A-F, antileukemic triterpene glucosides, and structures of the hydrolysates of cumingianoside A” (J Nat Prod, 1995).

Where only a bound is given, the exact number is not on record here.

This test deals with MOLT-4. The test is described as follows: Cytotoxicity against human MOLT4 cells. It is filed as functional, cell-based.

One may read the EC50 as the concentration giving half of the maximal effect. `CC(=O)OC[C@H]1O[C@@H](O[C@@H]2C[C@H]3C(C)(C)[C@H](OC(C)=O)CC[C@]3(C)[C@H]3CC[C@]45C[C@]4(CC[C@H]5[C@@H](C)C[C@@H](O)[C@H](O)C(C)(C)O)[C@@]32C)[C@H](O)[C@@H](O)[C@@H]1O` [CUMINGIANOSIDE A] showed an EC50 of under 6.25 nM.

On to `COC(C)(C)[C@@H](O)[C@H](O)C[C@H](C)[C@@H]1CC[C@]23C[C@]12CC[C@@H]1[C@@]2(C)CC[C@@H](OC(C)=O)C(C)(C)[C@@H]2C[C@@H](O[C@@H]2O[C@H](COC(C)=O)[C@@H](O)[C@H](O)[C@H]2O)[C@]13C` [CUMINGIANOSIDE C], for which the EC50 is under 4.5 nM.
